From patent publication US6867043B2, “Peptides that deliver antisense oligonucleotides which downregulate protein expression in cells” (The Trustees of Columbia University in the City of New York, priority 2001, dated 2005)
Oligonucleotides are written 5' to 3', each unit as a sugar letter and its base; * is a phosphorothioate linkage, no mark a phosphodiester; rarer units and linkages stand in square brackets, end groups in braces. Plain capitals give the bases only. {Fluorescein} = fluorescein label; d = 2'-deoxy (DNA)

Columns and labels:
[1] = tested on: T24 cells; assay: Fluorescence confocal microscopy of oligonucleotide delivery to the cell nucleus; assay type: cell-based; settings: 2 μM 5′-fluorescein-labeled ISIS 3521; 8 μM and 6 μM peptide; T24 cells pretreated with 25 μM chloroquine; 24 hr
Method: The ability of the protamine-NLS peptides to deliver the oligonucleotides into the cell nucleus was evaluated by fluorescence confocal microscopy.
Confocal microscopy: Cells were seeded in glass bottom microwells (MatTec Corp., Mass.), and treated with peptide-oligodeoxynucleotide complexes at 37° C. for 24 hr. Cellular internalization was examined using an LSM 410 laser scanning confocal microscope (Zeiss, Thornwood, N.Y.) equipped with a krypton/argon laser and attached to a Zeiss Axiovert 100 TV microscope. The 515-540 nm bandpass for fluorescein was used. Z-series were taken of a 1 to 2 micron optical section at 2 μm intervals. For measurements, a maximum projection of all sections was employed.

[2] = target: ISIS 3521; assay: Fluorescence titration: quenching of peptide Trp fluorescence by bound oligonucleotide; assay type: binding
Method: The interaction of ISIS 3521 (SEQ ID NO:5), a 20mer phosphorothioate antisense oligonucleotide, with the short and long protamine-NLS peptides (s-protamine-NLS and l-protamine-NLS) was evaluated by fluorescence spectroscopy. The peptide contains a single Trp residue (position 8 of the short peptide; SEQ ID NO:2) which can be excited at 290 nm and emits fluorescent light at 330 nm. The ability of a bound oligonucleotide to quench this fluorescent emission constitutes a relatively sensitive probe for the monitoring of molecular interactions.
The titration of a 5 μM solution of s-protamine-NLS (SEQ ID NO:2) with increasing concentrations of ISIS 3521 (SEQ ID NO:5), both in PBS and in Opti-MEM (without serum, to mimic transfection conditions), led to dramatic fluorescence quenching. At least two oligonucleotide binding modes can be easily discerned: At low oligonucleotide concentration (relative to s-protamine-NLS peptide) a plot of the decrease in fluorescence (due to quenching) vs. oligonucleotide concentration fits an equation of the Michaelis-Menton type. […] However, as oligonucleotide concentration is increased, Trp fluorescence continues to decline, but a similar plot no longer fits a Michaelis-Menton-type equation, and the binding becomes increasingly complex. Trp fluorescence is finally completely quenched (i.e., 100%) at a 4:1 molar ratio of peptide/oligonucleotide. […]

[3] = tested on: T24 bladder carcinoma cells; assay: MTT cellular viability assay of paclitaxel-treated T24 cells; assay type: cell-based; settings: 3 days paclitaxel, 24 hours treatment, 8 μM peptide / 2 μM oligonucleotide, 25 μM chloroquine pretreatment
Method: As a measure of the effectiveness of the peptide-delivered antisense inhibition of PKC-α the cells treated with peptide were exposed to paclitaxel, a compound commonly used in cancer therapy to inhibit microtubule depolymerization.
Cellular viability assay: Cells were seeded in 96-well tissue culture plates and treated the next day with oligonucleotide-peptide complexes for 24 hr. […] The cells were incubated for 4 hr at 37° C., 5% CO2 with 0.5 mg/mL MTT in complete media. An equal volume of solubilization solution (10% SDS in 0.01 M HCl) was then added and allowed to incubate overnight at 37° C. After the formazan crystals were dissolved, the plates were read on a Dynatech MR600 Microplate Reader at 540 nm.
Statistical analysis of the results was performed using the Analysis ToolPack provided by Microsoft Excel. A Student's two-sample t-test, assuming unequal variances, was used to determine the equality of the means of two samples. The confidence level was 0.05.

[4] = tested on: PKC-α; assay: Western blot of PKC-α protein expression in PC3 cells; assay type: cell-based; settings: for inhibition of PKC-α protein expression (antisense activity), in words: short-peptide experiments, 2 μM oligonucleotide, 25 μM chloroquine preincubation; for inhibition of PKC-α protein expression, in words: long-peptide experiments, ISIS 3521 0.25-2 μM, ISIS 4559 2 μM, 25 μM chloroquine pre-treatment required
Method: (§1) Experiments using the protamine-NLS peptides to deliver antisense oligonucleotides were performed in T24 bladder carcinoma and PC-3 prostate carcinoma cells. In addition to the 20-mer ISIS 3521, the 18-mer phosphorothioate oligonucleotide G3139 (SEQ ID NO:6) was also employed. G3139 is targeted to the first six codons of the human bcl-2 open reading frame. […] The expression of PKC-α protein was assayed by Western blotting after 24 hr, while the expression of bcl-2 protein in PC3 cells was assayed similarly after a further 48 hr incubation in RPMI media containing 10% FBS. In both cases, the incubations were performed in the continuous presence of the peptide/oligonucleotide complexes.
(§2) Treatment of cells with oligonucleotide-peptide complexes: Cells were grown in six-well plates until 65-75% confluent. The peptides, at the stated peptide/oligonucleotide molar ratios, were diluted in 500 μL of Opti-MEM medium and oligonucleotide was then added up to the required concentration of 2 μM. The solution was mixed gently and incubated at room temperature for 30 min to allow oligonucleotide-peptide complexes to form. […] The cells were then incubated at 37° C. for 24 hr (for PKC-α) or re-fed with complete McCoy's 5A media containing 10% FBS and allowed to incubate for an additional 72 hr (for bcl-2) before cell lysis and extract preparation.
(§3) Western Blotting: Cells were treated with peptide-oligodeoxynucleotide complexes, scraped, washed with cold PBS and then extracted in […] of lysis buffer [50 mM Tris-HCl, pH 7.5; 1% NP-40; 0.25% sodium deoxycholate; 150 mM NaCl; 1 mM EGTA; 50 μg/mL Pefablock™ SC; 15 μg/mL aprotinin, leupeptin, chymostatin, and pepstatin A; 1 mM Na3VO4; 1 mM NaF] at 4° C. for 1 hr. Cell debris was removed by centrifugation at 14,000×g for 20 min at 4° C. Protein concentrations were determined using the Bio-Rad protein assay system (Bio-Rad Laboratories, Richmond, Calif.).
Aliquots of cell extracts containing 20-30 μg of protein were resolved by 10% or 12% SDS-polyacrylamide gel electrophoresis and transferred to Hybond ECL filter paper (Amersham, Arlington Heights, Ill.). Filters were incubated at room temperature for 1-2 h in Blotto A [5% non-fat milk powder in TBS-T:10 mM Tris-HCl, pH 8.0, 150 mM NaCl, 0.05% Tween 20 (for PKC-α) and 5% BSA in PBS, 0.5% Tween (for Bcl-2)] and then probed overnight at 4° C. with 1:1000 dilution of anti-PKC- or 1:500 dilution of anti-Bcl-2 in Blotto A. After washing in TBS-T or PBS-T buffer (3×7 min, room temperature), filters were incubated for 1 h at room temperature in 5% milk/TBS-T or 5% milk/PBS-T buffer containing a 1:3,000 dilution of peroxidase-conjugated anti-mouse secondary antibody. […]

[5] = tested on: bcl-2; assay: Western blot of bcl-2 protein expression in PC3 cells; assay type: cell-based, human; settings: PC-3 cells; short-peptide experiments; 25 μM chloroquine pretreatment
Method: as §1
Treatment of cells with oligonucleotide-peptide complexes: Cells were grown in six-well plates until 65-75% confluent. […]
as §3, with “Cell debris was removed by centrifugation at 14,000×g for 20 min at 4° C.” left out, “Calif.). […]” for “Calif.).”

[6] = tested on: PKC-α; assay: Western blot of PKC-α protein expression in T24 cells; assay type: cell-based; settings: for inhibition of PKC-α protein expression (antisense activity), in words: short-peptide experiments, 2 μM oligonucleotide, 25 μM chloroquine preincubation
Method: as §1
as §2, with “The peptides, at the stated peptide/oligonucleotide molar ratios, were diluted in 500 μL of Opti-MEM medium and oligonucleotide was then added up to the required concentration of 2 μM.” left out
as §3
Aliquots of cell extracts containing 20-30 μg of protein were resolved by 10% or 12% SDS-polyacrylamide gel electrophoresis and transferred to Hybond ECL filter paper (Amersham, Arlington Heights, Ill.). […]

Row | Compound | delivery of fluoresceinated oligonucleotide to the cell nucleus [1] | cellular viability (reduction in cell proliferation by MTT assay), in words [3] | inhibition of PKC-α protein expression (antisense activity), in words [4] | inhibition of PKC-α protein expression (antisense activity), in words [6] | inhibition of PKC-α protein expression, in words [4] | also measured
1 | s-protamine-scrambled NLS: control peptide: short protamine fragment with scrambled NLS sequence (RRRRRRWGRRRRRRPKGKRKV; CONTROL PEPTIDE) | also promotes the delivery of the oligonucleotide to the nucleus |  |  |  |  | 
2 | RRRRRRWGRRRRRRPKKKRKV [s-protamine-NLS, peptide with shorter protamine fragment and SV40 large T-antigen nuclear localization signal] | effectively delivered fluoresceinated oligonucleotide to the cell nucleus | no effect on cell viability |  |  |  | Kd ([2]; 5 μM s-protamine-NLS titrated with ISIS 3521, low oligonucleotide concentration, R^2=0.99, read-out: Kd from Lineweaver-Burke (double reciprocal) plot of fluorescence quenching): 80 nM; Trp fluorescence quenched ([2]; at a 4:1 molar ratio of peptide/oligonucleotide): 100%
3 | CCN(CC)CCCC(C)Nc1ccnc2cc(Cl)ccc12 (stereo not drawn) [chloroquine] |  |  | did not downregulate PKC-α expression | did not downregulate PKC-α expression |  | inhibition of Bcl-2 expression (antisense activity), in words [5]: totally inactive
4 | 5′-fluorescein-labeled ISIS 3521: ISIS 3521 labeled with fluorescein at the 5′ end, for confocal microscopy (antisense {Fluorescein}-dG*dT*dT*dC*dT*dC*dG*dC*dT*dG*dG*dT*dG*dA*dG*dT*dT*dT*dC*dA) | internalized poorly |  |  |  |  | 
5 | l-protamine-NLS: long Arg-rich protamine fragment peptide with C-terminal SV40 large T-antigen nuclear localization signal (RRRRSRRRRRRFGRRRRRRVWRRRRPKKKRKV; NOVEL PEPTIDE - SV40/PROTAMINE SOURCE) |  |  |  |  | no effect | inhibition of PKC-α protein expression, in words ([6]; long-peptide experiments, ISIS 3521 0.25, 0.5, 1 μM, ISIS 4559 2 μM, chloroquine not required): no effect
6 | 5′-GTTCTCGCTGGTGAGTTTCA-3′ (antisense dG*dT*dT*dC*dT*dC*dG*dC*dT*dG*dG*dT*dG*dA*dG*dT*dT*dT*dC*dA) [ISIS 3521] |  | no effect on cell viability | completely ineffective | completely ineffective | did not have antisense effects | 
